Experimental data: US6372781B1, “Compounds for treating gastroduodenal diseases” (Pfizer Inc., priority 1994, dated 2002)

Experiments:
[1] = test system: Botrytis cinerea; conditions: against Botrytis cinerea; cited from earlier work
[2] = test system: Escherichia coli; conditions: against Escherichia coli; cited from earlier work
[3] = test system: Aspergillus niger; conditions: against Aspergillus niger; cited from earlier work
[4] = test system: Saccharomyces cerevisiae; conditions: against Saccharomyces cerevisiae; cited from earlier work
[5] = test system: Cladosporium cucumerinum; conditions: against Cladosporium cucumerinum; cited from earlier work
[6] = test system: Bacillus subtilis; conditions: against Bacillus subtilis; cited from earlier work
[7] = test system: Helicobacter pylori; experiment: in vitro screen against Helicobacter pylori (agar dilution / microdilution broth MIC); assay type: cell-based
[8] = test system: Bacillus cereus; conditions: against Bacillus cereus; cited from earlier work
[9] = test system: Ophiostoma ulmi; conditions: against Ophiostoma ulmi; cited from earlier work
[10] = test system: Helicobacter pylori; conditions: cited from earlier work

COc1cc(O)cc2c1C(=O)OC2CCCCCC1CCCC2(CCC(C)O2)O1 (stereo not shown) [spirolaxine]
antifungal activity [1]: no antifungal activity
bacteriostatic activity [2]: weak bacteriostatic activity
antifungal activity [3]: no antifungal activity
antifungal activity [4]: no antifungal activity
antifungal activity [5]: no antifungal activity
bacteriostatic activity [6]: weak bacteriostatic activity
helicobactericidal activity (kills Helicobacter pylori) [7]: potent helicobactericidal
bacteriostatic activity [8]: weak bacteriostatic activity
antifungal activity [9]: no antifungal activity

colloidal bismuth subcitrate
helicobactericidal activity [10]: helicobactericidal
